The numbers were not newly measured in patent publication US7517693B2, “Method and apparatus for determining a molecular descriptor of absorption for a candidate compound” (North Carolina State University, priority 2002, dated 2009), which cites them from elsewhere.

For one series the following is noted: Table III calibration compounds; 25° C.; known literature descriptor.
As for `O=[N+]([O-])c1ccc(O)cc1` [4-Nitrophenol], the “logL^16 (solute gas-hexadecane partition coefficient)” value is on record as 5.876.
As to `CCOP(=O)(OCC)OCC` [Triethyl phosphate], the “logL^16 (solute gas-hexadecane partition coefficient)” value is reported as 4.750.

Staying with this series, now noted: Table III calibration compounds; known literature descriptor.
In the case of `O=[N+]([O-])c1ccc(O)cc1` [4-Nitrophenol], the “α (effective solute H-bond acidity)” value is 0.82; the “β (effective solute H-bond basicity)” value was 0.26; the “π (effective solute dipolarity and polarizability)” value was 1.72.
For the compound `CCOP(=O)(OCC)OCC` [Triethyl phosphate], the “α (effective solute H-bond acidity)” value is recorded as 0.00; the “β (effective solute H-bond basicity)” value is recorded as 1.06; the “π (effective solute dipolarity and polarizability)” value is 1.00.
In the case of `CCOCC` [Diethylether], the “α (effective solute H-bond acidity)” value is 0.00; the “β (effective solute H-bond basicity)” value is 0.45; the “π (effective solute dipolarity and polarizability)” value is listed as 0.25.

For the next series the following is noted: Table IV study compounds.
Regarding `Oc1cccc(O)c1` [Resorcinol], the logKo/w is on record as 0.8.
Consider `CCCC(C)=O` [Compound 2-pentanone, 2-pentanone], for which the logKo/w is reported as 0.91.
Consider `CC12CCC(CC1)C(C)(C)O2` [1,8-cineole], for which the logKo/w is recorded as 2.74.
As to `CNC(=O)Oc1cccc2ccccc12` [Carbaryl], the logKo/w is 2.36.
As for `c1ncncn1` [1,3,5-triazine], the logKo/w is given as −1.17.
Take `CCNc1nc(Cl)nc(NC(C)C)n1` [Atrazine]: the logKo/w is listed as 2.61.
Regarding `ClC1=C(Cl)C2(Cl)C3C4OC4C(Cl)C3C1(Cl)C2(Cl)Cl` (stereo not shown) [heptachlor epoxide], the logKo/w was 4.98.
As for `COc1ccc(C(c2ccc(OC)cc2)C(Cl)(Cl)Cl)cc1` [Methoxychlor], the logKo/w was 5.08.
As for `Cl[C@H]1[C@H](Cl)[C@@H](Cl)[C@@H](Cl)[C@H](Cl)[C@H]1Cl` [Lindane], the logKo/w was 3.72.
Regarding `CCOP(=S)(OCC)Oc1ccc([N+](=O)[O-])cc1` [Parathion], the logKo/w was 3.83.
With `O=S1OCC2C(CO1)C1(Cl)C(Cl)=C(Cl)C2(Cl)C1(Cl)Cl` (stereo not shown) [endosulfan II], the logKo/w was 3.83.
Consider `CCC[N+](=O)[O-]` [1-nitropropane], for which the logKo/w is on record as 0.87.
For the compound `COC(=O)c1c(Cl)c(Cl)c(C(=O)OC)c(Cl)c1Cl` [Dacthal], the logKo/w is 4.28.
For `COc1cc(Cl)c(OC)cc1Cl` [Chloroneb], the logKo/w was 3.44.
For `CC(=O)CC(C)C` [4-methyl-2-pentanone], the logKo/w was 1.31.
On to `Cc1cccc(O)c1` [m-cresol], for which the logKo/w is 1.95.
In the case of `Nc1ccc(C(=O)O)cc1` [4-aminobenzoic acid], the logKo/w is reported as 0.83.
On to `Nc1ccccc1` [Aniline], for which the logKo/w is reported as 0.90.
`Cc1cccc(C)c1` [m-xylene]: the logKo/w is reported as 3.20.
For `COC(=O)c1cccnc1` [methyl nicotinate], the logKo/w is recorded as 0.64.
As to `CCOC(=O)C(O)(c1ccc(Cl)cc1)c1ccc(Cl)cc1` [Chlorobenzilate], the logKo/w is recorded as 4.74.
Consider `CCCCCCCCCCCCN1CCCCCC1=O` [Laurocapram], for which the logKo/w is 6.28.
Regarding `c1ccc2cc3ccccc3cc2c1` [Anthracene], the logKo/w is listed as 4.45.
As for `O=[N+]([O-])c1ccc(O)cc1` [4-Nitrophenol], the logKo/w is on record as 1.91.
As for `COC(=O)c1ccccc1O` [methyl salicylate], the logKo/w was 2.55.
Turning to `O=C(O)c1ccccc1O` [salicylic acid], the logKo/w is recorded as 2.26.
Consider `C1COCCO1` [1,4-dioxane], for which the logKo/w is listed as −0.27.
As for Nonylphenol, the logKo/w was 5.99.
For `CCCCI` [Compound 1-iodobutane, 1-iodobutane], the logKo/w is given as 3.08.
